Source: patent EP0006061A1, “Medicinal compound consisting of a derivative of cyclopentyl aldehyde” (INSTITUT DE RECHERCHES CHIMIQUES ET BIOLOGIQUES APPLIQUEES …, priority 1978, dated 1979)

Legend:
cobayes = assay: histamine aerosol bronchospasm (time to apnoea); assay type: in vivo; details: 0,1 mg/kg, aerosol for 10 min before histamine aerosol; controls 108 ± 18
Protocol: Les essais pharmaceutiques qui ont été mis en oeuvre avec les produits des exemples 1 et 4, ont été résumés ci-après : • 1°/ essais avec l'exemple 1 • a/ activité bactériostatique L' α-(2-formyl-3-méthyl-cyclopentyl)-acétal- déhyde inhibe les bactéries Gram (+) et Gram (-). Les CMI (concentration minimale inhibitrice) sont les suivantes : 0,75 mg/ml sur Staphylococcus aureus Londres, 1,2 mg/ml sur Escherichia coli, et 1,5 mg/ml sur Proteus • b/ activité antispasmodique : Les DE-50 du produit de l'exemple 1 ont été déterminés • (i) in vitro sur iléon isolé de cobaye vis à vis de l'histamine : DE - 50 = 50 γ/ml; • (ii) in vivo sur l'animal vivant selon la méthode de KONZETT & ROESLLER : DE - 50 = 2,6 mg/kg par administration i.v. • c/ activité antianaphylactique : Des cobayes mâles sont sensibilisés par deux injections de 0,5 ml d'une solution d'albumine à 2 g/1, à deux jours d'intervalle. Quatre semaines aprës,le choc anaphylactique mortel est provoqué par injection i.v. de 0,2 ml d'une solution aqueuse d'ovalbumine à 2 g/1. Les produits à tester sont administrés 30 mn avant (administration i.p.) ou en même temps (administration i.v.) que l'injection provoquant ledit choc anaphylactique. Les résultats sont donnés dans le tableau I pour le produit de l'exemple 1 et la Prométhazine en tant que produit de référence : [formula] • 2°/ essais avec le produit de l'exemple 4 (constitué par un mélange de 87 % en poids d'isomère "cis-trans" et 13 % en poids d'isomère "trans-cis). • a/ activité bactériostatigue : Le produit de l'exemple 4 inhibe les bactéries Gram (+) et Gram (-). […]

rat femelle = assay: anti-inflammatory activity, carrageenin oedema test; assay type: in vivo; details: dose 200 µg per rat
From the text: L'activité anti-inflammatoire de l'exemple 4 a été étudiée chez le rat femelle (de poids 100 g) selon le test de l'oedème à la carragéenine.Les résultats sont donnés dans le tableau IV où l'Indométacine est utilisée comme produit de référence : […]

SMILES	Apparition de l'apnée (en secondes) (cobayes)	inhibition par rapport aux témoins (rat femelle)
CC(CN1c2ccccc2Sc2ccccc21)N(C)C (centres unmarked) [Prométhazine, reference compound]	>600 secondes	
COc1ccc2c(c1)c(CC(=O)O)c(C)n2C(=O)c1ccc(Cl)cc1 [Indometacine, reference compound]		57%
